According to patent US8951985B2, “Compounds and pharmaceutical compositions for the treatment of viral infections” (Idenix Pharmaceuticals, Inc., priority 2011, dated 2015):
Where two headings read alike, the source gives them in different places.

What was measured:
HCV genotype 1b replicon = experiment: HCV replicon assay (HCV-REPL LUC), luciferase reporter; format: cell-based, hepatitis C virus
Method: Huh-7-derived cell line (Zluc) that harbors an HCV genotype 1b replicon and a luciferase reporter gene was grown in Dulbecco's Modified Eagle Medium (DMEM) supplemented with 10% fetal bovine serum, 2 mM GlutaMAX, 1% MEM nonessential amino acids, 100 IU/mL penicillin, 100 μg/mL streptomycin, and 0.5 mg/mL Geneticin® (G418). For dose response testing the cells were seeded in 96-well plates at 7.5×10^3 cells per well in a volume of 50 μl, and incubated at 37° C./5% CO2. Drug solutions were made up freshly in Huh-7 media as 2× stocks. Ten additional 5-fold dilutions were prepared from these stocks in DMEM without G418. At least three hours after Zluc cells were seeded, drug treatment was initiated by adding 50 μL of drug dilutions to the plates in duplicate. […] Cells were then incubated at 37° C./5% CO2. Alternatively compounds were tested at two concentrations (10 nM and 100 nM). […] After 72 hours of incubation, the inhibition of HCV replication was measured by quantification of photons emitted after mono-oxygenation of 5′-fluoroluciferin to oxyfluoroluciferin by firefly luciferase. For this, media was removed from the plates via gentle tapping. Fifty microliters of ONE-glo luciferase assay reagent was added to each well. The plates were shaken gently for 3 min at room temperature and luminescence was measured on a Victor^3 V 1420 multilabel counter (Perkin Elmer) with a 1 second read time using a 700 nm cut-off filter. The EC50 values were calculated from dose response curves from the resulting best-fit equations determined by Microsoft Excel and XLfit 4.1 software.
Compounds presented in the table below were assayed according to the replicon assay described above.

[1] = Cytotoxicity evaluation, CellTiter-Blue Cell Viability Assay; format: cell-based; details: human, Zluc cells (Huh-7-derived HCV replicon cell line)
Method: (§1) For cytotoxicity evaluation, Zluc cells were treated with compound as described above, and cell viability was monitored using the CellTiter-Blue Cell Viability Assay (Promega) by adding 20 μL of the assay solution to each well. The plates were then incubated at 37° C./5% CO2 for at least 3 hours. Fluorescence was detected in plates using excitation and emission wavelengths of 560 and 590 nm, respectively, in a Victor^3 V 1420 multilabel counter (Perkin Elmer) and CC50 values were determined using Microsoft Excel and XLfit 4.1 software.

[2] = tested on: Zluc cells (Huh-7-derived cell line); experiment: as above; format: cell-based; details: read-out: HCV Replicon CC50
Method: as §1

[3] = Hepatitis C virus, Huh-7, 72 h, read-out: HCV Replicon EC50, Zluc cells (Huh-7, HCV genotype 1b replicon, luciferase), 72 hours incubation

In the case of `COc1nc(N)nc2c1ncn2[C@@H]1O[C@H](COP(=O)(N[C@@H](C)C(=O)OC(C)C)OCC(=O)OC(C)C)[C@@H](O)[C@@]1(C)O` (stereo partly shown) [Compound 1], the EC50 (HCV genotype 1b replicon; [3]) is reported as 1 to 5 µM and the CC50 [1] is reported as no less than 100 µM.
`CCOC(=O)COP(=O)(N[C@@H](CC(C)C)C(=O)OC(C)C)OC[C@H]1O[C@@H](n2cnc3c(OC)nc(N)nc32)[C@](C)(O)[C@@H]1O` (single isomer, unassigned) [Compound 11b] gave an EC50 (HCV genotype 1b replicon; read-out: HCV Replicon EC50, Zluc cells (Huh-7, HCV genotype 1b replicon, luciferase), 72 hours incubation) of less than 0.5 µM and a CC50 [2] of 50 to 99 µM.
For `CCOC(=O)COP(=O)(N[C@@H](CC(C)C)C(=O)OC(C)C)OC[C@H]1O[C@@H](n2cnc3c(OC)nc(N)nc32)[C@](C)(O)[C@@H]1O` (stereo partly shown) [Compound 11], the EC50 (HCV genotype 1b replicon; [3]) was less than 0.5 µM and the CC50 [1] was no less than 100 µM.
Work on `COc1nc(N)nc2c1ncn2[C@@H]1O[C@H](COP(=O)(N[C@@H](CC(C)C)C(=O)OC(C)C)OC(C)C(=O)OCc2ccccc2)[C@@H](O)[C@@]1(C)O` (stereo partly shown) [Compound 4] yielded an EC50 (HCV genotype 1b replicon; [3]) of 0.5 to 1 µM and a CC50 [1] of 50 to 99 µM.
Work on `CCOC(=O)COP(=O)(N[C@@H](CCSC)C(=O)OCC)OC[C@H]1O[C@@H](n2cnc3c(OC)nc(N)nc32)[C@](C)(O)[C@@H]1O` (mixture of isomers) [Compound 9] yielded an EC50 (HCV genotype 1b replicon; [3]) of 1 to 5 µM and a CC50 [1] of no less than 100 µM.
With `CCOC(=O)COP(=O)(NC(C(=O)OCC)c1ccccc1)OC[C@H]1O[C@@H](n2cnc3c(OC)nc(N)nc32)[C@](C)(O)[C@@H]1O` (stereo partly shown) [Compound 8] the EC50 (HCV genotype 1b replicon; [3]) was 5 to 10 µM and the CC50 [1] was no less than 100 µM.
For `COc1nc(N)nc2c1ncn2[C@@H]1O[C@H](COP(=O)(N[C@@H](CC(C)C)C(=O)OC(C)C)OCC(=O)NCc2ccc(F)cc2)[C@@H](O)[C@@]1(C)O` (mixture of isomers) [Compound 10], the EC50 (HCV genotype 1b replicon; [3]) was 1 to 5 µM and the CC50 [1] was no less than 100 µM.
With `CCOC(=O)[C@@H](NP(=O)(OCCC(=O)OC(C)(C)C)OC[C@H]1O[C@@H](n2cnc3c(OC)nc(N)nc32)[C@](C)(O)[C@@H]1O)C(C)C` (mixture of isomers) [Compound 6] the EC50 (HCV genotype 1b replicon; [3]) was 1 to 5 µM and the CC50 [1] was no less than 100 µM.
`COc1nc(N)nc2c1ncn2[C@@H]1O[C@H](COP(=O)(N[C@@H](CC(C)C)C(=O)OC(C)C)OCCCC(=O)NCc2ccc(F)cc2)[C@@H](O)[C@@]1(C)O` (stereo partly shown) [Compound 5] showed an EC50 (HCV genotype 1b replicon; [3]) of 5 to 10 µM and a CC50 [1] of no less than 100 µM.
With `CCOC(=O)COP(=O)(N[C@H](C(=O)OC)C(C)C)OC[C@H]1O[C@@H](n2cnc3c(OCC)nc(N)nc32)[C@](C)(O)[C@@H]1O` (mixture of isomers) [Compound 7] the EC50 (HCV genotype 1b replicon; [3]) was 1 to 5 µM and the CC50 [1] was no less than 100 µM.
With `CCOC(=O)COP(=O)(N[C@H](Cc1ccccc1)C(=O)OC(C)C)OC[C@H]1O[C@@H](n2cnc3c(OC)nc(N)nc32)[C@](C)(O)[C@@H]1O` (stereo partly shown) [Compound 3] the EC50 (HCV genotype 1b replicon; [3]) was 5 to 10 µM and the CC50 [1] was no less than 100 µM.
In the case of `CCOC(=O)COP(=O)(N[C@@H](CC(C)C)C(=O)OC(C)C)OC[C@H]1O[C@@H](n2cnc3c(OC)nc(N)nc32)[C@](C)(O)[C@@H]1O` (single isomer, unassigned) [Compound 11a], the EC50 (HCV genotype 1b replicon; [3]) is reported as 1 to 5 µM and the CC50 [1] is reported as no less than 100 µM.
In the case of `CCOC(=O)COP(=O)(N[C@@H](CC(C)C)C(=O)OC(C)C)OC[C@H]1O[C@@H](n2cnc3c(OC)nc(N)nc32)[C@](C)(F)[C@@H]1O` (mixture of isomers) [Compound 12], the EC50 (HCV genotype 1b replicon; [3]) is reported as 0.5 to 1 µM and the CC50 [1] is reported as no less than 100 µM.
Compound `CCOC(=O)[C@H](Cc1ccccc1)NP(=O)(OCC(=O)OC(C)C)OC[C@H]1O[C@@H](n2cnc3c(OC)nc(N)nc32)[C@](C)(O)[C@@H]1O` (mixture of isomers) [Compound 2] has an EC50 (HCV genotype 1b replicon; [3]) of 0.5 to 1 µM and a CC50 [1] of no less than 100 µM.
